Target: T1, human mAChR M4 (Homo sapiens, UniProt P08173)
T1 construct: expressed in transfected cells; host or cells: CHO-K1 (American Type Culture Collection), stably expressing hM4 and Gqi5
T1 sequence (P08173 1-479): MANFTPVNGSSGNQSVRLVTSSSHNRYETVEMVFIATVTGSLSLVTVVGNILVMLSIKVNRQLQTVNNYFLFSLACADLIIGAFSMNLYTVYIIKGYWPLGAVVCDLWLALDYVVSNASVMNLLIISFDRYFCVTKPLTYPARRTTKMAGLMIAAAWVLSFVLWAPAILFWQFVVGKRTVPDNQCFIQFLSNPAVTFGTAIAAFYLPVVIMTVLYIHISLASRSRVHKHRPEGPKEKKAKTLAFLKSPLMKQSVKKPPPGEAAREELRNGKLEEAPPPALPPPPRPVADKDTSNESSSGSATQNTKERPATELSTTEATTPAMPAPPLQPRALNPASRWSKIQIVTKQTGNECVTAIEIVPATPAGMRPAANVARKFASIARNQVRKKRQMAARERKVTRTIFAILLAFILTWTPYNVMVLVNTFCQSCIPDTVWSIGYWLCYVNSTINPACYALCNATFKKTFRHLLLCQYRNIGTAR
Test: mAChR M4 cell-based functional assay: calcium mobilization (Fluo-4, FDSS), potentiation of EC20 acetylcholine response in hM4-Gqi5 CHO-K1 cells
Settings: human M4; for Emax at 30 µM: CHO-K1, % ACh maximum at 30 μM; for EC50: potentiation of EC20 acetylcholine response, calcium mobilization
Outline: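 CHO-K1 cells stably co-expressing human M4 and chimeric Gqi5, loaded with Fluo-4 AM (50 min, 37 °C). Compounds in 11-point 1:3 series added first; EC20 acetylcholine added at 144 s and again at 230 s. Calcium read on FDSS at 1 Hz; EC50 and Emax from four-parameter logistic fit of potentiated EC20 response.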

Row | Compound | Emax at 30 µM [%] | EC50 [nM]
1 | COCc1cc(=O)n2nc(N3CCc4ncc(-c5ccccc5C)cc4C3)c(C)cc2n1 [Compound 1-337, 2-(methoxymethyl)-8-methyl-7-(3-(o-tolyl)-7,8-dihydro-1,6-naphthyridin-6(5H)-yl)-4H-pyrimido[1,2-b]pyridazin-4-one] | 76 | 331
2 | Cc1c(N2CCc3ncc(-c4cnn(C)c4C)cc3C2)nn2c(=O)ccnc2c1C [Compound 1-338, 7-(3-(1,5-dimethyl-1H-pyrazol-4-yl)-7,8-dihydro-1,6-naphthyridin-6(5H)-yl)-8,9-dimethyl-4H-pyrimido[1,2-b]pyridazin-4-one] | 88 | 131
3 | Cc1c(N2CCc3ncc(-c4cnn(C(F)F)c4)cc3C2)nn2c(=O)ccnc2c1C [Compound 1-339, 7-(3-(1-(difluoromethyl)-1H-pyrazol-4-yl)-7,8-dihydro-1,6-naphthyridin-6(5H)-yl)-8,9-dimethyl-4H-pyrimido[1,2-b]pyridazin-4-one] | 77 | 230
4 | Cc1c(N2CCc3ncc(-c4ccccc4C(C)C)cc3C2)nn2c(=O)ccnc2c1C [Compound 1-340, 7-(3-(2-isopropylphenyl)-7,8-dihydro-1,6-naphthyridin-6(5H)-yl)-8,9-dimethyl-4H-pyrimido[1,2-b]pyridazin-4-one] | 48 | 503
5 | Cc1cc(F)c(F)c(-c2cnc3c(c2)CN(c2nn4c(=O)ccnc4c(C)c2C)CC3)c1 [Compound 1-341, 7-(3-(2,3-difluoro-5-methylphenyl)-7,8-dihydro-1,6-naphthyridin-6(5H)-yl)-8,9-dimethyl-4H-pyrimido[1,2-b]pyridazin-4-one] | 75 | 673
6 | CCc1ccccc1-c1cnc2c(c1)CN(c1nn3c(=O)ccnc3c(C)c1C)CC2 [Compound 1-342, 7-(3-(2-ethylphenyl)-7,8-dihydro-1,6-naphthyridin-6(5H)-yl)-8,9-dimethyl-4H-pyrimido[1,2-b]pyridazin-4-one] | 72 | 204
7 | Cc1c(N2CCc3ncc(-c4ccccc4F)cc3C2)nn2c(=O)ccnc2c1C [Compound 1-343, 7-(3-(2-fluorophenyl)-7,8-dihydro-1,6-naphthyridin-6(5H)-yl)-8,9-dimethyl-4H-pyrimido[1,2-b]pyridazin-4-one] | 77 | 400
8 | COc1ccccc1-c1cnc2c(c1)CN(c1nn3c(=O)ccnc3c(C)c1C)CC2 [Compound 1-344, 7-(3-(2-methoxyphenyl)-7,8-dihydro-1,6-naphthyridin-6(5H)-yl)-8,9-dimethyl-4H-pyrimido[1,2-b]pyridazin-4-one] | 72 | 663
9 | Cc1c(N2CCc3ncc(-c4cc(F)ccc4F)cc3C2)nn2c(=O)ccnc2c1C [Compound 1-345, 7-(3-(2,5-difluorophenyl)-7,8-dihydro-1,6-naphthyridin-6(5H)-yl)-8,9-dimethyl-4H-pyrimido[1,2-b]pyridazin-4-one] | 70 | 200
10 | Cc1c(N2CCc3ncc(-c4cc(F)cc(F)c4F)cc3C2)nn2c(=O)ccnc2c1C [Compound 1-346, 8,9-dimethyl-7-(3-(2,3,5-trifluorophenyl)-7,8-dihydro-1,6-naphthyridin-6(5H)-yl)-4H-pyrimido[1,2-b]pyridazin-4-one] | 67 | 483
11 | Cc1c(N2CCc3ncc(-c4ccc(F)cc4F)cc3C2)nn2c(=O)ccnc2c1C [Compound 1-347, 7-(3-(2,4-difluorophenyl)-7,8-dihydro-1,6-naphthyridin-6(5H)-yl)-8,9-dimethyl-4H-pyrimido[1,2-b]pyridazin-4-one] | 80 | 217
12 | Cc1cccnc1-c1cnc2c(c1)CN(c1nn3c(=O)ccnc3cc1C)CC2 [Compound 1-348, 8-methyl-7-(3-(3-methylpyridin-2-yl)-7,8-dihydro-1,6-naphthyridin-6(5H)-yl)-4H-pyrimido[1,2-b]pyridazin-4-one] | 68 | 2600
13 | Cc1cc2nccc(=O)n2nc1N1CCc2ncc(-c3ccccn3)cc2C1 [Compound 1-349, 8-methyl-7-(3-(pyridin-2-yl)-7,8-dihydro-1,6-naphthyridin-6(5H)-yl)-4H-pyrimido[1,2-b] pyridazin-4-one] | 69 | 1140
14 | Cc1cc(F)cnc1-c1cnc2c(c1)CN(c1nn3c(=O)ccnc3cc1C)CC2 [Compound 1-350, 7-(3-(5-fluoro-3-methylpyridin-2-yl)-7,8-dihydro-1,6-naphthyridin-6(5H)-yl)-8-methyl-4H-pyrimido[1,2-b]pyridazin-4-one] | 72 | 3450
15 | Cc1ccc(-c2cnc3c(c2)CN(c2nn4c(=O)ccnc4cc2C)CC3)nc1 [Compound 1-351, 8-methyl-7-(3-(5-methylpyridin-2-yl)-7,8-dihydro-1,6-naphthyridin-6(5H)-yl)-4H-pyrimido[1,2-b]pyridazin-4-one] | 55 | 426
16 | Cc1cc2nccc(=O)n2nc1N1CCc2ncc(-c3cccnn3)cc2C1 [Compound 1-352, 8-methyl-7-(3-(pyridazin-3-yl)-7,8-dihydro-1,6-naphthyridin-6(5H)-yl)-4H-pyrimido[1,2-b]pyridazin-4-one] | 59 | 3310
17 | Cc1ccc(-c2cnc3c(c2)CN(c2nn4c(=O)ccnc4cc2C)CC3)nn1 [Compound 1-353, 8-methyl-7-(3-(6-methylpyridazin-3-yl)-7,8-dihydro-1,6-naphthyridin-6(5H)-yl)-4H-pyrimido[1,2-b] pyridazin-4-one] | 55 | 1270
18 | Cc1cc2nccc(=O)n2nc1N1CCc2ncc(-c3cc(F)ccn3)cc2C1 [Compound 1-354, 7-(3-(4-fluoropyridin-2-yl)-7,8-dihydro-1,6-naphthyridin-6(5H)-yl)-8-methyl-4H-pyrimido [1,2-b]pyridazin-4-one] | 63 | 2540
19 | Cc1cc(C#N)ncc1-c1cnc2c(c1)CN(c1nn3c(=O)ccnc3cc1C)CC2 [Compound 1-355, 4-methyl-5-(6-(8-methyl-4-oxo-4H-pyrimido[1,2-b]pyridazin-7-yl)-5,6,7,8-tetrahydro-1,6-naphthyridin-3-yl)picolinonitrile] | 78 | 1520
20 | Cc1ccnnc1-c1cnc2c(c1)CN(c1nn3c(=O)ccnc3cc1C)CC2 [Compound 1-356, 8-methyl-7-(3-(4-methylpyridazin-3-yl)-7,8-dihydro-1,6-naphthyridin-6(5H)-yl)-4H-pyrimido[1,2-b]pyridazin-4-one] | 70 | –
21 | COCc1cc(=O)n2nc(N3CCc4ncc(-c5cnc(Cl)cc5C)cc4C3)c(C)cc2n1 [Compound 1-357, 7-(3-(6-chloro-4-methylpyridin-3-yl)-7,8-dihydro-1,6-naphthyridin-6(5H)-yl)-2-(methoxymethyl)-8-methyl-4H-pyrimido[1,2-b]pyridazin-4-one] | 86 | 383
22 | COCc1cc(=O)n2nc(N3CCc4ncc(-c5cccc(F)c5)cc4C3)c(C)cc2n1 [Compound 1-358, 7-(3-(3-fluorophenyl)-7,8-dihydro-1,6-naphthyridin-6(5H)-yl)-2-(methoxymethyl)-8-methyl-4H-pyrimido[1,2-b] pyridazin-4-one] | 83 | 337
23 | COCc1cc(=O)n2nc(N3CCc4ncc(-c5cnccc5C)cc4C3)c(C)cc2n1 [Compound 1-359, 2-(methoxymethyl)-8-methyl-7-(3-(4-methylpyridin-3-yl)-7,8-dihydro-1,6-naphthyridin-6(5H)-yl)-4H-pyrimido[1,2-b] pyridazin-4-one] | 82 | 136
24 | COCc1cc(=O)n2nc(N3CCc4ncc(-c5ccccc5F)cc4C3)c(C)cc2n1 [Compound 1-360, 7-(3-(2-fluorophenyl)-7,8-dihydro-1,6-naphthyridin-6(5H)-yl)-2-(methoxymethyl)-8-methyl-4H-pyrimido[1,2-b] pyridazin-4-one] | 83 | 245
25 | COCc1cc(=O)n2nc(N3CCc4ncc(-c5ccnc(C)c5)cc4C3)c(C)cc2n1 [Compound 1-361, 2-(methoxymethyl)-8-methyl-7-(3-(2-methylpyridin-4-yl)-7,8-dihydro-1,6-naphthyridin-6(5H)-yl)-4H-pyrimido[1,2-b] pyridazin-4-one] | 82 | 351
26 | COCc1cc(=O)n2nc(N3CCc4ncc(-c5ccncc5)cc4C3)c(C)cc2n1 [Compound 1-362, 2-(methoxymethyl)-8-methyl-7-(3-(pyridin-4-yl)-7,8-dihydro-1,6-naphthyridin-6(5H)-yl)-4H-pyrimido[1,2-b] pyridazin-4-one] | 78 | 337
27 | COCc1cc(=O)n2nc(N3CCc4ncc(-c5ccccc5OC(F)(F)F)cc4C3)c(C)cc2n1 [Compound 1-363, 2-(methoxymethyl)-8-methyl-7-(3-(2-(trifluoromethoxy)phenyl)-7,8-dihydro-1,6-naphthyridin-6(5H)-yl)-4H-pyrimido[1,2-b] pyridazin-4-one] | 65 | 3060

Reference: patent US20250101041A1, “POSITIVE ALLOSTERIC MODULATORS OF THE MUSCARINIC ACETYLCHOLINE RECEPTOR M4” (Vanderbilt University, priority 2022, published 2025)
